The values below come from patent US20050239143A1, “Immunocapture-based measurements of mammalian pyruvate dehydrogenase complex” (priority 2002, published 2005).

Assay [1] relates to E1α subunit of immunoprecipitated PDH complex. The assay can be described thus: 2D-gel isoelectric focusing and Western blot with E1α-specific mAb to follow phosphorylation of immunoprecipitated PDH. The conditions noted are these: pH gradient 10 to 3; compared with untreated enzyme. (In western blotting, separated proteins are transferred to a membrane and probed.)
Assay [2] has as its system T1, immunocaptured human heart PDH complex.
T1 construct: tissue Analytic Biological Services, Inc; host or cells: human heart mitochondria, lauryl maltoside solubilized, captured on anti-E2 mAb plates
Put plainly: Immunocapture microplate PDH activity assay (NADH production) with known inhibitors and activators. Format: biochemical. The conditions noted are these: agent added to wells with already immunocaptured PDH; unmodified human heart PDH control = 100%. As for the experimental part:
FIG. 3 is a graph summarizing the results of tests for specific inhibition and activation of immunocaptured PDH activity. Known inhibitors and activators as shown were added directly to wells of microtiter plates and incubated with already immunocaptured PDH. Activity of the complex was monitored by measuring production of NADH per min/mg mitochondrial protein. Unmodified activity of human heart PDH (control) was set to 100%.
96-well ELISA plates (Falcon Probind) were coated with Goat-anti-mouse IgG Fc specific antibody (0.5 μg/well) in PBS buffer overnight at 4° C. After 3 washings, wells were coated with monoclonal anti-PDH-E2 subunit at 0.5 μg/well and incubated for 1-2 hours at room temperature. The wells were washed 3-4 times and covered with a 0.5% bovine serum albumin solution for 1 hour to minimize non-specific protein binding to the wells. After blocking, wells were washed 5 times and 100 μl of solubilized mitochondria applied and incubated in the wells at room temperature for 1 hour. After incubation, the supernatant was collected and reapplied to a second antibody-covered plate to test for residual activity.
100 μl/well of the reaction mixture (50 mM Tris, pH 7.5; 2 mM β-NAD+, 225 μM TPP, 2 mM pyruvate, 150 μM Coenzyme A, 2.6 mM cysteine, 1 mM MgCl2) was applied and NADH production was monitored either spectrophotometrically at […] or by measuring fluorescence in the presence of 15 μM resazurin and 0.5 U/ml diaphorase using an excitation wavelength of 530 nm and an emission wavelength of 590 nm for up to […]. […] Activity was calculated as nMol NADH/min/mg of mitochondrial protein.
Monoclonal anti-E2 antibodies were attached to 96-well microplates to which had been prebound goat anti-mouse IgG Fc mAbs, as described in Materials and Methods. […] Unbound protein was removed by extensive washings and NADH production then measured by the increase of absorbance at 340 nm or by coupled fluorescence assay, in the presence of NAD+, pyruvate, CoA, TPP, MgCl2, and cysteine as a reducing agent in 50 mM Tris-HCl buffer pH 7.8. […]

“Also recorded” adds a separate entry of the source.

As to `Nc1ncnc2c1ncn2[C@@H]1O[C@H](COP(=O)(O)OP(=O)(O)OP(=O)(O)O)[C@@H](O)[C@H]1O` [ATP], in assay [1], the “Level of phosphorylation of E1α (isoelectric point shift)” value is on record as “greatly increased the level of phosphorylation; also recorded: increases the phosphorylation patterns of E1α”. Also, in assay [2], the “Inhibition of immunocaptured PDH activity” value was “about 70%”.

Turning to `O=C(O)C(Cl)Cl` [Dichloroacetate], the “Increase of PDH activity” value in assay [2] was determined as 34%.

Turning to `O=[As]O` [sodium arsenite], in assay [2], the “Inhibition of immunocaptured PDH activity” value is reported as more than 98%.
